Test results published in patent publication US20020193374A1, “Reagents and methods for the diagnosis of CMV dissemination” (priority 2000, published 2002).

Legend:
US28 [1] = biological target: T1, US28 (Human cytomegalovirus, UniProt P69332); experiment: cytoplasmic calcium mobilization in US28-293 cells; assay type: cell-based, human cytomegalovirus (CMV); set-up: expressed in transfected cells; host or cells: human 293 cells (US28-293 cells); conditions: compound added before fractalkine (FIG. 2)
Protocol: For each test, 1×10^6 cells were incubated at 37° C. in the cuvette of a PTI spectrometer, and the ratio of 410/490 nm emission plotted over time (typically 2-3 minutes), with compounds added at 5 seconds, followed by fractalkine at 60 seconds. […] Compounds which inhibited fractalkine binding were tested in this assay for the effects on Ca^2+ in this system.
S-(−)-IBZM (from the RBI division of Sigma Chemical Co., St. Louis, Mo., USA, Catalog No. I-139) was evaluated in the assays described in Examples 1 and 2. The IC50 value was 0.6 μM.

chemokine receptors = experiment: binding specificity among chemokine receptors tested; conditions: all chemokine receptors tested
US28 [2] = biological target: T1, US28; experiment: inhibition of 125I-fractalkine binding to US28 expressing cells; set-up: a mouse cell line stably expressing transfected US28 cDNA under the control of a CMV promoter; expressed in transfected cells; species or system human cytomegalovirus (CMV)
Protocol: The US28 expressing cells used in most assays consist of a mouse cell line stably expressing transfected US28 cDNA under the control of a CMV promoter. These cells were cultured in IMDM-5% FBS, and harvested when the concentration was between 0.5-1.0×10^6 cells/mL. Some assays were performed with adherent human 293 cells (US28-293 cells) or membranes. The cells were centrifuged and resuspended in assay buffer (20 mM HEPES, 140 mM NaCl, 1 mM CaCl2, 5 mM MgCl2, and with 0.2% bovine serum albumin) to a concentration of 5.6×10^6 cells/mL. Using the Multi-Probe automated system, set up with 8 assay plates at a time, first 0.09 mL of cells was added to the assay plates containing the compounds. The final concentration of the compounds was 5 μg/mL each (1 μg/mL Comgenex). Then 0.09 mL of ^125I-fractalkine diluted in assay buffer (final concentration ˜[…], with ˜30,000 cpm per well) was added, the plates sealed and incubated for approximately 3 hours at 4 degrees C. on a shaker platform. The assay plates were harvested using Packard filter plates, pre-soaked in PEI solution, on the vacuum harvest apparatus. Scintillation fluid (35 μL) was added to all wells, the plates were sealed and counted in a Top Count scintillation counter. […]
S-(−)-IBZM (from the RBI division of Sigma Chemical Co., St. Louis, Mo., USA, Catalog No. I-139) was evaluated in the assays described in Examples 1 and 2. […]

US28 [3] = biological target: T1, US28; experiment: reversibility of binding to US28, competition assay with fractalkine; set-up: a mouse cell line stably expressing transfected US28 cDNA under the control of a CMV promoter; expressed in transfected cells; species or system human cytomegalovirus (CMV); conditions: pre-incubated with US28 expressing cells at 0-10 μg/mL, removed by competition with fractalkine (FIG. 3)
Protocol: FIG. 3 illustrates the reversibility of IBZM binding to US28. In this figure, IBZM is pre-incubated with US28 expressing cells (at concentrations of 0-10 μg/mL) and removed by competition with fractalkine.
In this assay, IBZM is pre-incubated with US28 expressing cells (at concentrations of 0-10 μg/mL) and removed by competition with fractalkine (see FIG. 3).

T1 sequence (P69332 whole entry): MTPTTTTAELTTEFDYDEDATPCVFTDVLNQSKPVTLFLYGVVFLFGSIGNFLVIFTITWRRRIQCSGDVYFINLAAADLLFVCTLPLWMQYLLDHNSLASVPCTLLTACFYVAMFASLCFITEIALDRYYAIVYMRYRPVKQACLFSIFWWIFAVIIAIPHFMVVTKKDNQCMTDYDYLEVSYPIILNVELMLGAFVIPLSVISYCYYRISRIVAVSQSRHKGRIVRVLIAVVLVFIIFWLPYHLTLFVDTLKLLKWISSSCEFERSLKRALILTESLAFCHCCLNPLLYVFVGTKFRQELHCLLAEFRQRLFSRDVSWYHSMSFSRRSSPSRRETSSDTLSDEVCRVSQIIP

CCN1CCC[C@H]1CNC(=O)c1c(OC)ccc(I)c1O [IBZM, S(−)-3-Iodo-2-hydroxy-6-methoxy-N[(1-ethyl-2-pyrrolidinyl)methyl]benzamide]
mode of action in calcium mobilization (US28 [1]): competitive agonist | specificity of binding among chemokine receptors (chemokine receptors): bind specifically to US28 | IC50 (US28 [2]): 600 nM | reversibility of binding to US28 (US28 [3]): reversible
